The results in this text go back to ChEMBL document CHEMBL1145219, “A new strategy to combat Alzheimer's disease. Combining radical-scavenging potential with metal-protein-attenuating ability in one molecule” (Bioorg Med Chem Lett, 2005).

By EC50 is commonly meant the concentration at which the effect is half-maximal. Read a low EC50 as greater potency.

The assay deals with Cell line. The assay is described as follows: Radical-scavenging potency with metal-protein-attenuating ability in human was determined. Format: functional, cell-based.

In the case of `c1ccc2[nH]c(CN3CCNCCNCC3)nc2c1`, the EC50 (Homo sapiens, Cell line) worked out at 900 nM.

“N,N0-propylene bis-(2-acetylpyridine iminato) copper(II)” registered a concentration for a half-maximal effect (EC50) (cell line) of 2330 nM.

On to `c1ccc2[nH]c(CN3CCNCCN(Cc4nc5ccccc5[nH]4)CC3)nc2c1`, for which the EC50 (Homo sapiens, Cell line) worked out at 760 nM. In other words, the sub-micromolar range.

“N,N0-butylene bis-(2-acetylpyridine iminato) copper(II)”: under “cell line”, the midpoint of the response, the EC50, lay at 560 nM.

“N,N0-ethylene bis-(2-acetylpyridine iminato) copper(II)” had an EC50 (cell line) of 11000 nM.
